Laboratory results published in patent publication US20240390484A1 (priority 2022, published 2024).

Assays:
[1] = Particle size and polydispersity index (PDI) by Dynamic Light Scattering; type: physicochemical; conditions: for “Ready-to-use” S2P RNA formulation PDI / “Ready-to-use” S2P RNA formulation Size: 48/40.5/10/1.5 mol %, blank-LNP added to lyophilized S2P RNA (55 ug/vial), N/P 7; for Blank-LNP PDI / Blank-LNP Size: 48/40.5/10/1.5 mol % ionizable lipid/cholesterol/DSPC/DMG-PEG
Method: (§1) Lipid nanoparticles (LNPs) were formed or formulated by rapid mixing of an ethanol phase and an aqueous phase using a microfluidic device. The aqueous phase included a 50 mM citrate buffer (pH 5.5). The ethanol phase included an ionizable lipid (as described herein), cholesterol (Jiangsu Southeast Nanomaterials), 1,2-diastearoyl-sn-glycero-3-phosphocholine (DSPC) (Jiangsu Southeast Nanomaterials) and 1,2-dimyristoyl-rac-glycero-3-methoxypolyethylene glycol-2000 (DMG-PEG2000) (SINOPEG). A series of ionizable lipids were evaluated. These four lipid components were mixed at defined molar ratios in ethanol, for instance, at a molar ratio of 48:40.5:10:1.5 (ionizable lipid:cholesterol:DSPC:DMG-PEG2000). The generated LNP particles were purified in citrate buffer (containing sucrose) and characterized with respect to particle size, polydispersity index (PDI) and ionizable lipid concentration. The LNP solution was then diluted to the target concentration and stored at 2-8° C.
(§2) In the case of a filled LNP, for example, an LNP-encapsulated S-2P RNA liquid drug product, the preparation protocol is essentially the same, except that it was an aqueous solution of S-2P RNA in citrate buffer pH 5-6 that constitutes the aqueous phase for LNP formation. The LNP-encapsulated RNA formulation is also referred to as “RNA-LNP” in this disclosure. Regarding characterization, particle size and polydispersity index (PDI) of the RNA-LNP were determined by Dynamic Light Scattering (DLS); RNA encapsulation efficiency and concentration were determined by means of Ribogreen® assay and RNA purity was determined by agarose gel electrophoresis.
(§3) The “ready-to-use” RNA product was manufactured by transferring a predetermined amount of already formed LNP in solution to a sealed vial containing the lyophilized RNA composition, followed by mixing at room temperature. The amount of LNP added per vial (e.g., 30-100 μg RNA per vial) was determined based on the molar ionizable lipid:RNA (N/P) molar ratio of 7. In this disclosure, “ready-to-use” S-2P RNA formulations (also referred to as “LNP(S-2P RNA)”) containing 30-100 μg/mL S-2P RNA were prepared, and then characterized with respect to particle size, polydispersity index, as well as RNA concentration, complexation efficiency, and purity using the same methods as described above in Example 3.

[2] = RNA encapsulation/complexation efficiency by Ribogreen assay; type: physicochemical; conditions: 48/40.5/10/1.5 mol %; blank-LNP added to lyophilized S2P RNA (55 ug/vial), N/P 7
Method: as §2, §3

BHK-21 cells = type: cell-based; conditions: ready-to-use S2P RNA, 4 μg, 48 hours post transfection; 48/40.5/10/1.5 mol %
Vero E6 cells = type: cell-based; conditions: ready-to-use S2P RNA, 4 μg, 48 hours post transfection; 48/40.5/10/1.5 mol %
[3] = Stability of blank-LNP at 2-8° C. (particle size, PDI); type: physicochemical; conditions: blank-LNP 48/40.5/10/1.5 mol %
Method: as §1
Each generated blank-LNP formulation was added to and mixed with lyophilized S2P RNA, altogether yielding a series of “ready-to-use” S2P RNA test items containing the different ionizable lipids. The pharmaceutical characteristics (Table 3) and in vitro transfection efficiency (Table 4) of these “ready-to-use” RNA test items were compared head-to-head. In parallel, the stability profiles of these […] blank-LNP formulations (i.e. without RNA complexation) were assessed at 2-8° C. (see Table 5).
The generated fourteen blank-LNP formulations were characterized in terms of particle size and PDI, both at the end of manufacturing (T=0) and 8-week storage at 2-8° C. […] (defined as size increase ≤20 nm in 8 weeks), namely DMG-PEG2000 between at least 1-4 mol %, DSPC between at least 5-20 mol %, ionizable lipid between at least 30-70 mol % and cholesterol between at least 18.5-58.5 mol %.

SMILES: CCCCCCCCCCC(CCCCCCCCCC)C(=O)OCCCCCCOc1ccc(OCCCCCCOC(=O)C(CCCCCCCCCC)CCCCCCCCCC)c(COC(=O)CCCN(C)C)c1 [Lipid #8]
- “Ready-to-use” S2P RNA formulation PDI [1]: 0.11
- “Ready-to-use” S2P RNA formulation Size [1]: 130 nm
- Blank-LNP PDI [1]: 0.13
- Blank-LNP Size [1]: 86 nm
- “Ready-to-use” S2P RNA formulation RNA complexation efficiency [2]: 34%
- RBD expression in BHK-21 cells (BHK-21 cells): <LOD
- RBD expression in Vero E6 cells (Vero E6 cells): <LOD
- PDI, T = 1 month [3]: 0.17
- Size, T = 1 month [3]: 90 nm
- Change in size (nm) vs. T0, T = 2 weeks [3]: −3 nm
- PDI, T = 2 weeks [3]: 0.07
- Size, T = 2 weeks [3]: 83 nm
- PDI, T = 0 [3]: 0.13
- Size, T = 0 [3]: 86 nm

SMILES: CCCCCC/C=C/COC(=O)CCCCCCCCC(CCCCCCCCC(=O)OC/C=C/CCCCCC)OC(=O)CCCN(C)C [Lipid #9]
- “Ready-to-use” S2P RNA formulation PDI [1]: 0.18
- “Ready-to-use” S2P RNA formulation Size [1]: 280 nm
- Blank-LNP PDI [1]: 0.09
- Blank-LNP Size [1]: 207 nm
- “Ready-to-use” S2P RNA formulation RNA complexation efficiency [2]: 34%
- RBD expression in BHK-21 cells (BHK-21 cells): 0.50 ng/mL
- RBD expression in Vero E6 cells (Vero E6 cells): 0.16 ng/mL
- Change in size (nm) vs. T0, T = 1 month [3]: +22 nm
- PDI, T = 1 month [3]: 0.10
- Size, T = 1 month [3]: 229 nm
- Change in size (nm) vs. T0, T = 2 weeks [3]: +7 nm
- PDI, T = 2 weeks [3]: 0.05
- Size, T = 2 weeks [3]: 214 nm
- PDI, T = 0 [3]: 0.09
- Size, T = 0 [3]: 207 nm

SMILES: CC/C=C/CCCC(CCC/C=C/CC)OC(=O)CCCCCCCC(CCCCCCCC(=O)OC/C=C/CCCCCC)COC(=O)CCCN(C)C (centres unmarked) [Lipid #10]
- “Ready-to-use” S2P RNA formulation PDI [1]: 0.21
- “Ready-to-use” S2P RNA formulation Size [1]: 204 nm
- Blank-LNP PDI [1]: 0.05
- Blank-LNP Size [1]: 91 nm
- “Ready-to-use” S2P RNA formulation RNA complexation efficiency [2]: 34%
- RBD expression in BHK-21 cells (BHK-21 cells): 0.33 ng/mL
- RBD expression in Vero E6 cells (Vero E6 cells): 0.25 ng/mL
- Change in size (nm) vs. T0, T = 1 month [3]: +29 nm
- PDI, T = 1 month [3]: 0.21
- Size, T = 1 month [3]: 120 nm
- Change in size (nm) vs. T0, T = 2 weeks [3]: +16 nm
- PDI, T = 2 weeks [3]: 0.11
- Size, T = 2 weeks [3]: 107 nm
- PDI, T = 0 [3]: 0.05
- Size, T = 0 [3]: 91 nm
